Assay results published in the supplement of paper PMC10307832.

Assays:
Assay in all cases: relative viability (nuclei count vs DMSO), 5 days (fraction); higher = more cells survive
[1] = compound: CC1=NN=C(O1)C2=NN=C(C=C2)N3CCC(CC3)OC4=C(C=CC(=C4)F)Cl + COc1cc2c(Oc3ccc(NC(=O)C4(C(=O)Nc5ccc(F)cc5)CC4)cc3F)ccnc2cc1OCCCN1CCOCC1 [Foretinib] (partner 0.25 µM)
How it was run: (§1)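 Dosing by pin tool came one day after lung cancer cell lines were seeded in 1536-well plates, using either one drug or a fixed anchor-drug dose plus five library-drug doses (not always all listed) in √10 steps. After 5 days, nuclei were counted on 4× images. Relative viability is treated-well nuclei count divided by vehicle-well nuclei count, and values are medians of duplicate plates.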

[2] = compound: CC1=NN=C(O1)C2=NN=C(C=C2)N3CCC(CC3)OC4=C(C=CC(=C4)F)Cl + Nc1nc2[nH]cc(CCc3ccc(C(=O)N[C@@H](CCC(=O)O)C(=O)O)cc3)c2c(=O)[nH]1 [Pemetrexed] (partner 0.2 µM)
How it was run: as §1

Tosedostat + Pictilisib = compound: CC(C)C[C@@H](C(=O)N[C@H](C(=O)OC1CCCC1)c1ccccc1)[C@H](O)C(=O)NO [Tosedostat] + CS(=O)(=O)N1CCN(Cc2cc3nc(-c4cccc5[nH]ncc45)nc(N4CCOCC4)c3s2)CC1 [Pictilisib] (partner 1 µM)
How it was run: as §1

[3] = compound: CC1=NN=C(O1)C2=NN=C(C=C2)N3CCC(CC3)OC4=C(C=CC(=C4)F)Cl + N=C(N)NC(=N)NCCc1ccccc1 [Phenformin] (partner 250 µM)
How it was run: as §1

UMC-11
relative viability ([1]; first compound 0.253 µM): 0.539
relative viability ([1]; first compound 0.8 µM): 0.57
relative viability ([1]; first compound 2.53 µM): 0.543
relative viability ([1]; first compound 8 µM): 0.501
relative viability ([2]; first compound 0.253 µM): 0.504
relative viability ([2]; first compound 0.8 µM): 0.535
relative viability ([2]; first compound 2.53 µM): 0.518
relative viability ([2]; first compound 8 µM): 0.37
relative viability (Tosedostat + Pictilisib; first compound 0.02 µM): 0.911
relative viability (Tosedostat + Pictilisib; first compound 0.06325 µM): 0.807
relative viability (Tosedostat + Pictilisib; first compound 0.2 µM): 0.782
relative viability (Tosedostat + Pictilisib; first compound 0.6325 µM): 0.705
relative viability (Tosedostat + Pictilisib; first compound 2 µM): 0.828
relative viability ([3]; first compound 0.253 µM): 0.288
relative viability ([3]; first compound 0.8 µM): 0.291
relative viability ([3]; first compound 2.53 µM): 0.263
relative viability ([3]; first compound 8 µM): 0.263
